Reference: ChEMBL document CHEMBL1201862, “PubChem BioAssay data set” (2004)
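In this assay, cells in 96-well plates receive the compound at five concentrations for 48 hours. Endpoints are linearly interpolated between the surrounding concentrations. GI50 = concentration required for 50% inhibition of growth.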 The source made the active and inactive calls. No stated cut-off is given here; in the data, active = GI50 up to about 1.1 µM and inactive = higher.

How the values were obtained:
Assay in all cases: NCI anticancer screen, dose series, 48 h
HOP-92 = tested on: HOP-92
HCT-15 = tested on: HCT-15
Hs-578T = tested on: Hs-578T
A498 = tested on: A498
SW-620 = tested on: SW-620
NCI/ADR-RES = tested on: NCI/ADR-RES
MOLT-4 = tested on: MOLT-4
OVCAR-4 = tested on: OVCAR-4
COLO 205 = tested on: COLO 205
Malme-3M = tested on: Malme-3M
OVCAR-8 = tested on: OVCAR-8
HCT-116 = tested on: HCT-116
SK-MEL-28 = tested on: SK-MEL-28
SF-539 = tested on: SF-539
HT-29 = tested on: HT-29
786-0 = tested on: 786-0
HOP-62 = tested on: HOP-62
NCI-H226 = tested on: NCI-H226
SF-268 = tested on: SF-268
SK-MEL-2 = tested on: SK-MEL-2

| SMILES | GI50 (HOP-92) | GI50 (HCT-15) | GI50 (Hs-578T) | GI50 (A498) | GI50 (SW-620) | GI50 (NCI/ADR-RES) | GI50 (MOLT-4) | GI50 (OVCAR-4) | GI50 (COLO 205) | GI50 (Malme-3M) | GI50 (OVCAR-8) | GI50 (HCT-116) | GI50 (SK-MEL-28) | GI50 (SF-539) | GI50 (HT-29) | GI50 (786-0) | GI50 (HOP-62) | GI50 (NCI-H226) | GI50 (SF-268) | GI50 (SK-MEL-2) |
| --- | --- | --- | --- | --- | --- | --- | --- | --- | --- | --- | --- | --- | --- | --- | --- | --- | --- | --- | --- | --- |
| COC1=C(C)C(=O)c2c(c(COC(N)=O)c3n2CC2C3N2C)C1=O (stereo not drawn) | 0.148 µM (active) | < 0.0118 µM | 0.16 µM (active) | 0.0519 µM (active) | < 0.0113 µM (active) | < 0.025 µM (active) | < 0.0147 µM (active) | 0.0826 µM (active) | < 0.0157 µM (active) | 0.0495 µM (active) | < 0.0191 µM (active) | < 0.0125 µM (active) | 0.0502 µM (active) | 0.0112 µM (active) | < 0.01 µM (active) | < 0.01 µM (active) | < 0.01 µM (active) | 0.0766 µM (active) | 0.0256 µM (active) | 0.0361 µM (active) |
| C=C1C(=O)OC2CC(=C)C3CC=C(C)C3CC12 (stereo not drawn) | 10.5 µM (inactive) | 17.5 µM | 44.7 µM (inactive) | 53.6 µM (inactive) | 15.7 µM (inactive) | 35.5 µM (inactive) | 17.3 µM (inactive) | 27.3 µM (inactive) | 17.9 µM (inactive) | > 10 µM (inactive) | 35.9 µM (inactive) | 18.4 µM (inactive) | 23.1 µM (inactive) | 38.1 µM (inactive) | 13 µM (inactive) | 15.7 µM (inactive) | 47 µM (inactive) | 15.6 µM (inactive) | 34 µM (inactive) | 11.7 µM (inactive) |
| CN(C)c1ccc(/C=C/c2ccnc3ccccc23)cc1N | 0.337 µM (active) | 6.24 µM | 15.3 µM (inactive) | 10.4 µM (inactive) | 12.4 µM (inactive) | 13.1 µM (inactive) | 5.64 µM (inactive) | 10.5 µM (inactive) | 2.53 µM (inactive) | 10.9 µM (inactive) | 8.85 µM (inactive) | – | 13 µM (inactive) | 14.7 µM (inactive) | 4.49 µM (inactive) | 12.6 µM (inactive) | 13.8 µM (inactive) | 11.4 µM (inactive) | 9.73 µM (inactive) | 8.65 µM (inactive) |
| CCCc1[nH]nc(C(N)=O)c1/N=N/N(C)C | 33.3 µM (inactive) | 50.4 µM | 50 µM (inactive) | 71.6 µM (inactive) | 63.7 µM (inactive) | 91 µM (inactive) | 15 µM (inactive) | 54.1 µM (inactive) | 63.2 µM (inactive) | 98.2 µM (inactive) | 76.2 µM (inactive) | 51.9 µM (inactive) | > 100 µM (inactive) | 48.4 µM (inactive) | 86.3 µM (inactive) | 65.5 µM (inactive) | 58.7 µM (inactive) | 38.9 µM (inactive) | 36.9 µM (inactive) | > 100 µM (inactive) |
| O=S(=O)(O)c1ccc2c(/N=N\c3cccc4ccccc34)c(O)c(S(=O)(=O)O)cc2c1 | > 100 µM (inactive) | > 100 µM | > 100 µM (inactive) | > 100 µM (inactive) | > 100 µM (inactive) | > 100 µM (inactive) | > 100 µM (inactive) | > 100 µM (inactive) | > 100 µM (inactive) | > 61.7 µM (inactive) | > 100 µM (inactive) | > 100 µM (inactive) | > 100 µM (inactive) | > 100 µM (inactive) | > 100 µM (inactive) | > 100 µM (inactive) | > 100 µM (inactive) | > 100 µM (inactive) | > 100 µM (inactive) | > 100 µM (inactive) |
| CC[C@@]1(O)C(=O)OCc2c1cc1n(c2=O)Cc2cc3c(N)cccc3nc2-1 [9-AMINOCAMPTOTHECIN] | 0.0356 µM (active) | 0.197 µM | 4.22 µM (inactive) | 0.0794 µM (active) | 0.0321 µM (active) | 0.0128 µM (active) | < 0.01 µM (active) | 0.238 µM (active) | 0.157 µM (active) | 0.0785 µM (active) | 0.0148 µM (active) | 0.0272 µM (active) | 0.177 µM (active) | < 0.01 µM (active) | 0.0632 µM (active) | < 0.01 µM (active) | < 0.01 µM (active) | 0.0102 µM (active) | < 0.01 µM (active) | 0.233 µM (active) |
| CC(Cl)(CCC(Cl)C(C)(C)Cl)C(=O)CBr (stereo not drawn) | 7.93 µM (inactive) | 8.28 µM | 17.4 µM (inactive) | 17.2 µM (inactive) | 2.18 µM (inactive) | 22.8 µM (inactive) | 1.21 µM (inactive) | 2.73 µM (inactive) | 6.27 µM (inactive) | 12.3 µM (inactive) | 10.5 µM (inactive) | 7.05 µM (inactive) | 16.7 µM (inactive) | 16.1 µM (inactive) | 13.1 µM (inactive) | 7.94 µM (inactive) | 18.2 µM (inactive) | 16.8 µM (inactive) | 16.7 µM (inactive) | 14.7 µM (inactive) |
| Cc1cc(S(N)(=O)=O)c(SCc2nc(N)nc(N(C)C)n2)cc1Cl | > 10 µM (inactive) | > 10 µM | > 10 µM (inactive) | > 10 µM (inactive) | > 10 µM (inactive) | > 10 µM (inactive) | > 10 µM (inactive) | > 10 µM (inactive) | > 10 µM (inactive) | > 10 µM (inactive) | > 10 µM (inactive) | > 10 µM (inactive) | > 10 µM (inactive) | > 10 µM (inactive) | > 10 µM (inactive) | > 10 µM (inactive) | > 10 µM (inactive) | > 10 µM (inactive) | > 10 µM (inactive) | > 10 µM (inactive) |
| CN(C)CC1CCC/C(=C\c2ccc(Cl)cc2)C1=O (stereo not drawn) | 3.15 µM (inactive) | 2.05 µM | 2.92 µM (inactive) | 17.3 µM (inactive) | 1.93 µM (inactive) | 3.62 µM (inactive) | 0.9 µM (active) | 2.79 µM (inactive) | 2.12 µM (inactive) | 1.91 µM (inactive) | 3.85 µM (inactive) | 1.8 µM (inactive) | 3.46 µM (inactive) | 10.6 µM (inactive) | 9.27 µM (inactive) | 1.68 µM (inactive) | 15.8 µM (inactive) | 14.7 µM (inactive) | 5.2 µM (inactive) | 1.41 µM (inactive) |
| c1ccc2c(c1)NC1(N3CCCCC3)CCCCC21 (stereo not drawn) | 20 µM (inactive) | 44 µM | 47.9 µM (inactive) | 32.8 µM (inactive) | 41.2 µM (inactive) | 91.8 µM (inactive) | 25.9 µM (inactive) | 56.4 µM (inactive) | 62.1 µM (inactive) | 58.2 µM (inactive) | 63.2 µM (inactive) | 37.9 µM (inactive) | 49.3 µM (inactive) | > 100 µM (inactive) | 39.4 µM (inactive) | 61 µM (inactive) | > 100 µM (inactive) | 52.4 µM (inactive) | 52.5 µM (inactive) | 49.3 µM (inactive) |
| O=C1N(c2ccccc2)N=C2c3ccncc3C3=NN(c4ccccc4)C(=O)C123 (stereo not drawn) | > 100 µM (inactive) | 13.2 µM | > 100 µM (inactive) | > 100 µM (inactive) | 2.53 µM (inactive) | > 27.4 µM (inactive) | 0.504 µM (active) | > 63 µM (inactive) | 2.12 µM (inactive) | > 100 µM (inactive) | > 100 µM (inactive) | > 29.7 µM (inactive) | > 22 µM (inactive) | 14.5 µM (inactive) | > 39.6 µM (inactive) | > 100 µM (inactive) | > 100 µM (inactive) | > 100 µM (inactive) | – | > 100 µM (inactive) |
| COc1ccc(C(=O)/C=C/c2ccc(O)c(O)c2F)c(OC)c1 | 20 µM (inactive) | 0.34 µM | 6.44 µM (inactive) | 8.51 µM (inactive) | 5.09 µM (inactive) | 4.62 µM (inactive) | 1.12 µM (inactive) | 4.09 µM (inactive) | 11.5 µM (inactive) | 7.64 µM (inactive) | 7.76 µM (inactive) | 4.02 µM (inactive) | 8.11 µM (inactive) | 3.2 µM (inactive) | 8.97 µM (inactive) | 4.43 µM (inactive) | 4.36 µM (inactive) | 11.4 µM (inactive) | 2.99 µM (inactive) | 3.05 µM (inactive) |
| NC1NCCC(=O)N1CCc1c[nH]c2ccccc12 (stereo not drawn) | 31.1 µM (inactive) | 19.5 µM | 23.4 µM (inactive) | 12.7 µM (inactive) | 21.3 µM (inactive) | 24.5 µM (inactive) | – | 27.1 µM (inactive) | 18.3 µM (inactive) | 19.9 µM (inactive) | 39.7 µM (inactive) | 13.6 µM (inactive) | 19.3 µM (inactive) | 16.7 µM (inactive) | 27.2 µM (inactive) | 20 µM (inactive) | 19.2 µM (inactive) | 28.7 µM (inactive) | 22.1 µM (inactive) | 19.9 µM (inactive) |
| Cc1c(Cl)nc(Nc2nc3ccccc3[nH]2)nc1Cl | 2.06 µM (inactive) | > 100 µM | 27.2 µM (inactive) | > 100 µM (inactive) | 31.2 µM (inactive) | > 100 µM (inactive) | > 100 µM (inactive) | 29 µM (inactive) | 72.3 µM (inactive) | > 100 µM (inactive) | 41.7 µM (inactive) | > 100 µM (inactive) | 40 µM (inactive) | > 100 µM (inactive) | 25 µM (inactive) | 59.4 µM (inactive) | – | > 100 µM (inactive) | 47.6 µM (inactive) | > 100 µM (inactive) |
| COC(=O)c1c2c(cc3c1CC1(C3)Cc3cc4c(c(C(=O)OC)c3C1)CCCC4)CCCC2 | > 100 µM (inactive) | > 100 µM | > 100 µM (inactive) | > 100 µM (inactive) | – | > 100 µM (inactive) | 57.5 µM (inactive) | > 100 µM (inactive) | > 100 µM (inactive) | > 100 µM (inactive) | > 100 µM (inactive) | > 100 µM (inactive) | – | > 100 µM (inactive) | > 100 µM (inactive) | > 100 µM (inactive) | > 100 µM (inactive) | > 100 µM (inactive) | – | 1.55 µM (inactive) |
